Test results as given in BindingDB's records for doi:10.1016/j.bmc.2014.01.014 (Shenyang Pharmaceutical University, 2014).

Biological target: Hepatocyte growth factor receptor (Homo sapiens, UniProt P08581)
Experiment: Inhibition of c-Met (unknown origin) using poly (Glu, Tyr) 4:1 after 30 mins by HTRF assay

SMILES	IC50 [nM]
COc1cc2c(Oc3ccc(N=Cc4c(O)n(-c5ccc(C)cc5)c(=O)[nH]c4=O)cc3F)ccnc2cc1OCCCN1CCN(C)CC1	2.7
COc1cc2c(Oc3ccc(N=Cc4c(O)n(-c5ccc(F)cc5F)c(=O)[nH]c4=O)cc3F)ccnc2cc1OCCCN1CCOCC1	12
COc1cc2c(Oc3ccc(N=Cc4c(O)n(-c5ccc(F)cc5F)c(=O)[nH]c4=O)cc3F)ccnc2cc1OCCCN1CCCC1	12
COc1cc2c(Oc3ccc(N=Cc4c(O)n(-c5ccc(F)cc5)c(=O)[nH]c4=O)cc3F)ccnc2cc1OCCCN1CCCC1	2.7
